According to US20260335294A1, “TREATING CONGENITAL DISORDERS OF GLYCOSYLATION” (Mayo Foundation for Medical Education and Research, priority 2022, published 2026):

Columns and labels:
[1] = test system: aldose reductase (AR); conditions: role: inhibitor; cited from earlier work
[2] = test system: pmm2 mutant zebrafish; assay: Metabolomic profiling of zebrafish treated with epalrestat; format: in vivo; conditions: 5 dpf embryos, single dose 10 μM or 40 μM, 24 hours
Method: Animals were maintained according to standard protocols. The zebrafish strains were obtained from the Zebrafish International Resource Center (ZIRC, Eugene, OR). Pmm2sa10150 mutant zebrafish were established as described elsewhere (Klaver et al., JCI Insight, 6(24):e153474 (2021)).
10 embryos per sample were homogenized by sonication in extraction buffer (80% MeOH, IS). The metabolites were then precipitated at −80 °C overnight, after which the samples were centrifuged at 15,000 rpm, 20 minutes, 4 °C. Next, the supernatant was transferred to a fresh Eppendorf tube. The samples were centrifuged again at 15,000 rpm, 20 minutes, 4 °C to remove any leftover impurities and transferred to a fresh MS vial. Finally, the samples were analyzed by LC/MS.
Fibroblasts were plated in 6-well plates for LC/MS and T75 flasks for GC/MS analysis as described above. After 24 hours, medium was removed and cells washed with PBS. Then, DMEM containing 5.5 mM glucose, 2 mM glutamine, and 10% dialyzed FBS was added. Epalrestat was freshly prepared and fibroblasts were supplemented with 10 μM epalrestat daily. After 48 hours media was changed, and 48 hours after that, metabolites were extracted and measured by both LC/MS and GC/MS. Zebrafish embryos were genotyped at 2 days post fertilization (dpf), and were treated by adding the epalrestat (solubilized in DMSO) directly into the embryo media at 5 dpf. […]

[3] = test system: PMM2-CDG patients; assay: Liver enzymes (AST, ALT) in patients on epalrestat; format: in vivo, human; conditions: for ALT: C < 45 U/l; for AST: C: < 50 U/l
From the text: The primary objective of the study was to assess the efficacy and safety of epalrestat treatment in 3 PMM2-CDG pediatric subjects prior to a planned Phase III clinical trial (Oral epalrestat therapy in Pediatric Subjects with PMM2-CDG, NCT04925960). The secondary objective was to assess the ability of epalrestat to improve clinically relevant aspects of PMM2-CDG such as increased urine polyols (sorbitol, mannitol), abnormal glycosylation (carbohydrate deficient transferrin), abnormal coagulation (ATIII=antithrombin III), impaired liver function (ALT=Alanine Transaminase, AST=Aspartate Transaminase), neurologic function (Brief Ataxia Rating Scale=BARS), severity of phenotype (Nijmegen Pediatric CDG Rating Scale=NPCRS). The ability of epalrestat to inhibit polyol production was monitored by evaluating urine polyol levels (sorbitol, mannitol), which are elevated in PMM2-CDG. Next, carbohydrate deficient transferrin, which is abnormal in PMM2-CDG, was evaluated in order to assess improvement of glycosylation following epalrestat treatment. CDT mono-oligo/dioligo ratio and a-oligo/dioligo ratio are used to evaluate glycosylation abnormalities. Transferrin normally occurs with two glycan chains (di-oligo). In the case of glycosylation abnormalities, glycan chains are missing (A-oligo transferrin has no glycan chains, mono-oligo has one glycan chain, di-oligo has two glycan chains). The higher ratio of a-oligo/di-oligo and mono-oligo/di-oligo indicate glycosylation abnormalities are present. Therefore, improvement in a-oligo/di-oligo and mono-oligo/di-oligo ratios can be used to monitor improvement or worsening of glycosylation status. Changes in the liver enzymes AST, ALT, which are frequently elevated in PMM2-CDG, were monitored both as part of a safety study and as part of monitoring clinical improvement in coagulation. Neurologic improvement was assessed by modified BARS scores in 2 patients (3rd patient was not eligible for the test due to age at the start of the trial). NPCRS was assessed at every visit to assess changes in the severity of the patients' phenotype. Additionally, the frequency of adverse events, changes in vital signs, complete blood count, and changes in BMI were monitored.
Two patients were started on epalrestat on single patient investigational new drug (IND) (P5 IRB: 19-010017; IND #145262; P6 Protocol PMM2-CDG-001/A). Epalrestat was initiated on the parents' own initiative in the third patient (P7). Two patients were in their second year of epalrestat treatment, while the third, was in the 3rd year of treatment. Physical, neurological, and biochemical examinations were performed in 3 PMM2-CDG patients at baseline, and at every three months after the start of the epalrestat treatment. Patients underwent NPCRS phenotype severity assessment and biological sampling at every visit. Epalrestat (Ono Pharmaceuticals, Osaka, Japan) was taken orally 3 times per day (TID) before meals in a divided dose, with dosage escalation throughout the treatment. The pharmacological profile of epalrestat was as described elsewhere (Ligezka et al, Ann. Neurol., 90(6):887-900 (2021)). The starting dosage in P5 and P6 was 0.8 mg/kg/day, while P7 was started on 0.5 mg/kg/day due to their young age. P7 dosage was increased to 0.8 mg/day after a month, once safety was established. Blood and urine samples were collected routinely. Urine polyols, carbohydrate deficient transferrin (CDT), anti-thrombin III (ATIII), liver enzymes (ALT, AST), and complete blood count (CBC) were performed. Modified Brief Ataxia Rating Scale was used to assess ataxia in the 2 patients (P5, P6; P7 was not eligible for the test due to age). The modified BARS scale included Archimedes spiral test, but not the abnormalities of the ocular pursuit system and the scale range was 0-54. Goal attainment scale (GAS) was administered as described per study protocol (ClinicalTrials.gov Identifier: NCT04199000). […]

[4] = test system: patient fibroblasts and healthy controls; assay: Quantification of NADPH and NADP; format: cell-based, human; conditions: 10 μM, 24 h
Method: Fibroblasts from three patient fibroblasts (P2, P4, P5) and two healthy controls were plated on day 1. The next day medium was changed. The cells were grown in the presence and absence of […] epalrestat for another 24 hours. The medium was then removed, cells were washed with cold saline solution (0.9% NaCl) and 250 μL of extraction buffer (50% MeOH, 30% acetonitrile, 20% H2O Tris-HCl pH 7.6) was added to the cells. The metabolites were precipitated overnight at −80 °C, samples were centrifugated at 20,000 rpm, 20 minutes, 4 °C, and supernatant was transferred to a fresh vial. Pellets were used for determination of protein concentration. Supernatant containing metabolites was analyzed by LC/MS less than 24 hours after the initial collection to avoid degradation of NADPH into NADP. Relative abundance of NADP and NADPH was obtained. […]

[5] = test system: PMM2-CDG patients; assay: Safety and tolerability of epalrestat in pediatric patients; format: in vivo, human
Method: The primary objective of the study was to assess the efficacy and safety of epalrestat treatment in 3 PMM2-CDG pediatric subjects prior to a planned Phase III clinical trial (Oral epalrestat therapy in Pediatric Subjects with PMM2-CDG, NCT04925960). […] The ability of epalrestat to inhibit polyol production was monitored by evaluating urine polyol levels (sorbitol, mannitol), which are elevated in PMM2-CDG. Next, carbohydrate deficient transferrin, which is abnormal in PMM2-CDG, was evaluated in order to assess improvement of glycosylation following epalrestat treatment. […] Changes in the liver enzymes AST, ALT, which are frequently elevated in PMM2-CDG, were monitored both as part of a safety study and as part of monitoring clinical improvement in coagulation. Neurologic improvement was assessed by modified BARS scores in 2 patients (3rd patient was not eligible for the test due to age at the start of the trial). NPCRS was assessed at every visit to assess changes in the severity of the patients' phenotype. Additionally, the frequency of adverse events, changes in vital signs, complete blood count, and changes in BMI were monitored. […]

SMILES: CC(/C=C1\SC(=S)N(CC(=O)O)C1=O)=C\c1ccccc1 [epalrestat]
- mode of inhibition of AR [1]: non-competitive inhibitor
- GDP-mannose level [2]: increased
- polyol levels [2]: reduced
- ALT ([3]; P5, 12 months, 1.5 mg/kg day, baseline 23): 24 U/L
- AST ([3]; P5, 12 months, 1.5 mg/kg day, baseline 48): 37 U/L
- ALT ([3]; P5, 24 months, 2 mg/kg day, baseline 23): 25 U/L
- AST ([3]; P5, 24 months, 2 mg/kg day, baseline 48): 34 U/L
- ALT ([3]; P5, 28 months, 3 mg/kg day, baseline 23): 25 U/L
- AST ([3]; P5, 28 months, 3 mg/kg day, baseline 48): 40 U/L
- liver transaminase levels ([3]; P5-P7, words): improvement
- AST ([3]; P6, 12 months, 1.5 mg/kg day, baseline 58): 40 U/L
- ALT ([3]; P6, 12 months, 1.5 mg/kg day, baseline 67): 32 U/L
- AST ([3]; P6, 18 months, 3 mg/kg day, baseline 58): 38 U/L
- ALT ([3]; P6, 18 months, 3 mg/kg day, baseline 67): 49 U/L
- AST ([3]; P7, 12 months, 1.5 mg/kg day, baseline 548): 80 U/L
- ALT ([3]; P7, 12 months, 1.5 mg/kg day, baseline 997): 105 U/L
- NADP abundance [4]: decreased
- NADPH abundance [4]: increased
- NADPH/NADP ratio ([4]; PMM2-CDG n=3, control n=2): increased
- tolerability of escalating doses ([5]; three pediatric patients P5-7): well-tolerated
- side-effects ([5]; three pediatric patients P5-7, oral TID, long-term): No side-effects were observed
